Reference: patent publication US8921308B2, “Antimicrobial peptide, branched forms thereof and their use in the treatment of bacteria infections” (priority 2010, dated 2014)
≈ marks a conversion by molar mass, not a printed value. Like-named read-outs stand apart in the source and are kept apart here.

Key:
[1] = test system: Acinotebacter baumannii RUH 134; format: cell-based; conditions: 24 h
Procedure: (§1) Peptide MICs were determined against strains of several bacterial species, including Gram-negative and Gram-positive pathogens (Table 1 and 2). Activity of tetra-branched D-M33 was retained against MDR strains with various resistance mechanisms (such as extended-spectrum beta-lactamases and carbapenemases), including MDR P. aeruginosa strains from CF patients. The antimicrobial activity of tetra-branched D-M33 appeared slightly better with respect to tetra-branched L-M33 for MDR strains of Pseudomonas and one strain of Klebsiella and sensitively better respect to tetra-branched L-M33 for the two strains of Staphyloccoccus aureus reported in Table 1.

[2] = test system: Acinotebacter baumannii RUH 875; format: cell-based; conditions: 24 h
Procedure: as §1

E. coli ATCC 25922 = format: cell-based; conditions: ATCC 25922, 24 h
Procedure: as §1

[3] = test system: Klebsiella pneumoniae ATCC 13833; format: cell-based; conditions: ATCC 13833, 24 h
Procedure: as §1

P. aeruginosa PAO-1 = format: cell-based; conditions: PAO-1, 24 h
Procedure: as §1

[4] = test system: P. aeruginosa VenM rugosa 05/04/2005; format: cell-based; conditions: VenM rugosa 05/04/2005, 24 h
Procedure: as §1

E. faecalis ATCC 29212 = conditions: ATCC 29212, 24 h
Procedure: (§2) Minimum Inhibitory Concentration (MIC) was determined by a standard microdilution assay as recommended by the National Committee for Clinical Laboratory Standards (NCCLS) using cation-supplemented Mueller-Hinton (MH) broth (Oxoid Ltd. Basingstoke, UK) and a bacterial inoculum of 5×10^4 CFU per well, in a final volume of 100 μl. Results were recorded by visual inspection after 24 h of incubation at 37° C.

E. faecalis FI74B4 VSE = conditions: 24 h
Procedure: as §2

E. faecium FI81B1 VRE = conditions: 24 h
Procedure: as §2

E. faecium FI81B2 VSE = conditions: 24 h
Procedure: as §2

S. agalactiae ATCC 13813 = conditions: ATCC 13813, 24 h
Procedure: as §2

S. aureus ATCC 29213 = conditions: ATCC 29213, 24 h
Procedure: as §2

S. epidermidis 4761/1 = conditions: 4761/1, 24 h
Procedure: as §2

S. epidermidis 6154 = conditions: 6154, 24 h
Procedure: as §2

S. pneumoniae 47C12 = conditions: 47C12, 24 h
Procedure: as §2

S. pneumoniae 47D22 = conditions: 47D22, 24 h
Procedure: as §2

S. pneumoniae ATCC 49619 = conditions: ATCC 49619, 24 h
Procedure: as §2

[5] = test system: Staphylococcus aureus 3851; conditions: 3851, 24 h
Procedure: as §2

S. capitis ATCC 27840 = experiment: MIC, microdilution assay; format: cell-based; conditions: S. capitis ATCC 27840, reference strain
Procedure: as §2

[6] = test system: S. epidermidis ATCC 14990; experiment: MIC, microdilution assay; format: cell-based; conditions: S. epidermidis ATCC 14990, reference strain
Procedure: as §2

human erythrocytes = experiment: Haemolysis of human erythrocytes (method of Parpart); format: cell-based; conditions: for haemolytic activity (percentage of haemolysis): red cells of human
Procedure: Effect of tetra-branched L-M33, D-M33 and monomeric Indolicidin on haemolysis of human erythrocytes. The figures show the haemolytic activity of the three peptides on human erythrocytes evaluated by means of erythrocyte osmotic resistance of Parpart method in NaCl. The percentage of haemolysis is calculated by means of a calibration curve obtained by incubating erythrocytes with increasing concentrations of NaCl. […] The percentage of haemolysis of untreated blood after 19 hours (control) is very limited (<1%).
Haemolysis of fresh human erythrocytes was determined using the method of Parpart, summarized as follows. A calibration curve was constructed by suspending fresh human erythrocytes in phosphate buffer (pH 7.4, 110 mM sodium phosphate) with various concentrations of NaCl and incubated for 30 min at room temperature. Samples were centrifuged at 500×g for 5 minutes, and haemoglobin release was monitored by measuring the absorbance of supernatants at 540 nm. The absorbance obtained with 0.1% NaCl corresponded to 100% lysis and that with 1% NaCl, to 0% lysis. Peptides dissolved in PBS were added to human erythrocyte solution at several concentrations. The resulting suspension was incubated separately at 37° C. for 2 h and 24 h. Release of hemoglobin was monitored by measuring the absorbance of the suspernatant at 540 nm after centrifuging and haemolysis percentage was calculated using the calibration curve.

E. coli TG1 = experiment: In vivo antibacterial activity, lethal E. coli infection in mice; conditions: Balb-c mice, LD100 E. coli ip; single dose 10 mg/Kg ip 1 hour later
Procedure: (§3) In vivo antibacterial activity of tetra-branched D-M33 peptide. Balb-c mice (20 g) were intra-peritoneally injected with a lethal amount of E. coli TG1 cells (1×10^9 CFU). Continuous line (Ctr) indicates mice only injected ip with bacteria and no D-M33. Broken line indicates mice injected ip with bacteria and a single injection of D-M33 peptide 10 mg/Kg 1 hour later.
(§4) Tetra-branched D-M33 peptide was analysed for its antibacterial activity in mice infected with lethal amounts of the Gram-negative bacterium E. coli or the Gram-positive bacterium S. aureus.
(§5) Balb-c mice were infected with the LD100 of bacteria and treated 1 hour later with the peptide by ip administration.

S. aureus USA 300 = experiment: In vivo antibacterial activity, lethal S. aureus infection in mice; conditions: Balb-c mice, LD100 S. aureus ip; single dose 25 mg/Kg ip 1 hour later
Procedure: as §3, with “S. aureus USA 300” for “E. coli TG1”, “(5×10^6 CFU) mixed in a 7% mucin solution. Control” for “(1×10^9 CFU). Continuous”, “D-M33” for “Broken”, “25” for “10”, “later. P<0.05.” for “later.”
as §4, §5

C. glabrata ATCC 90030 = conditions: ATCC 90030, 24 h
[7] = test system: C. parapsilosis ATCC 90018; conditions: ATCC 90018, 24 h
C. albicans 9833 = conditions: 9833, 24 h
C. tropicalis 6597 = conditions: 6597, 24 h
C. krusei ATCC 6268 = conditions: ATCC 6268, 24 h
[8] = animals treated ip, peptide dose 100 mg/Kg
Aureolysin = Aureolysin (Staphylococcus aureus, UniProt P81177); format: in vitro ADME; conditions: incubation with S. aureus Aureolysin, 1 hour / 24 hours
Sequence of Aureolysin (P81177 209-509): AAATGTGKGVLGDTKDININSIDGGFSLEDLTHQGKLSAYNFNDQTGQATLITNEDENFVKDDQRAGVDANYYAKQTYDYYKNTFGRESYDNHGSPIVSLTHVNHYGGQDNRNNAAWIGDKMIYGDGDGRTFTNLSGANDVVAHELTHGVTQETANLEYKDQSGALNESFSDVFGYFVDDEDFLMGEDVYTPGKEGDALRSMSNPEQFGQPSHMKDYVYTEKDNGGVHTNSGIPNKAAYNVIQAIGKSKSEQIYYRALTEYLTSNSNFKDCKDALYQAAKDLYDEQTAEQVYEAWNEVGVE
Procedure: HPLC profiles of tetra-branched peptides L-M33 (A) and D-M33 (B) after incubation with the protease Aureolysin derived from S. aureus.

CC[C@@H](C)[C@@H](NC(=O)[C@@H](CCCCN)NC(=O)[C@H](N)CCCCN)C(=O)N[C@H](CCCNC(=N)N)C(=O)N[C@@H](C(=O)N[C@H](CCCNC(=N)N)C(=O)N[C@H](CC(C)C)C(=O)N[C@H](CO)C(=O)N[C@H](C)C(=O)NCCCCC(NC(=O)[C@@H](C)NC(=O)[C@@H](CO)NC(=O)[C@@H](CC(C)C)NC(=O)[C@@H](CCCNC(=N)N)NC(=O)[C@H](NC(=O)[C@@H](CCCNC(=N)N)NC(=O)[C@H](NC(=O)[C@@H](CCCCN)NC(=O)[C@H](N)CCCCN)[C@H](C)CC)C(C)C)C(=O)NCCCCC(NC(=O)C(CCCCNC(=O)[C@@H](C)NC(=O)[C@@H](CO)NC(=O)[C@@H](CC(C)C)NC(=O)[C@@H](CCCNC(=N)N)NC(=O)[C@H](NC(=O)[C@@H](CCCNC(=N)N)NC(=O)[C@H](NC(=O)[C@@H](CCCCN)NC(=O)[C@H](N)CCCCN)[C@H](C)CC)C(C)C)NC(=O)[C@@H](C)NC(=O)[C@@H](CO)NC(=O)[C@@H](CC(C)C)NC(=O)[C@@H](CCCNC(=N)N)NC(=O)[C@H](NC(=O)[C@@H](CCCNC(=N)N)NC(=O)[C@H](NC(=O)[C@@H](CCCCN)NC(=O)[C@H](N)CCCCN)[C@H](C)CC)C(C)C)C(=O)NCCC(=O)O)C(C)C (stereo partly drawn) [D-M33, KKIRVRLSA]
MIC [1]: 3 µM (≈ 14 µg/mL) | MIC [2]: 3 µM (≈ 14 µg/mL) | MIC (E. coli ATCC 25922): 1.5 µM (≈ 7.02 µg/mL) | MIC [3]: 0.7 µM (≈ 3.28 µg/mL) | MIC (P. aeruginosa PAO-1): 0.7 µM (≈ 3.28 µg/mL) | MIC [4]: 0.7 µM (≈ 3.28 µg/mL) | MIC (E. faecalis ATCC 29212): 0.7 µM (≈ 3.28 µg/mL) | MIC (E. faecalis FI74B4 VSE): 0.7 µM (≈ 3.28 µg/mL) | MIC (E. faecium FI81B1 VRE): 0.7 µM (≈ 3.28 µg/mL) | MIC (E. faecium FI81B2 VSE): 0.7 µM (≈ 3.28 µg/mL) | MIC (S. agalactiae ATCC 13813): 1.5 µM (≈ 7.02 µg/mL) | MIC (S. aureus ATCC 29213): 3 µM (≈ 14 µg/mL) | MIC (S. epidermidis 4761/1): 0.35 µM (≈ 1.64 µg/mL) | MIC (S. epidermidis 6154): 0.35 µM (≈ 1.64 µg/mL) | MIC (S. pneumoniae 47C12): 12 µM (≈ 56.2 µg/mL) | MIC (S. pneumoniae 47D22): 6 µM (≈ 28.1 µg/mL) | MIC (S. pneumoniae ATCC 49619): 6 µM (≈ 28.1 µg/mL) | MIC [5]: 0.7 µM (≈ 3.28 µg/mL) | MIC (S. capitis ATCC 27840): 0.35 µM (≈ 1.64 µg/mL) | MIC [6]: 0.35 µM (≈ 1.64 µg/mL) | haemolysis, result in words (human erythrocytes): negligible haemolysis grade | haemolytic activity (percentage of haemolysis) (human erythrocytes): < 5% | animals protected from signs of sepsis and death (seven-day survival) (E. coli TG1): 100% | animals protected from signs of sepsis and death (seven-day survival) (S. aureus USA 300): 100% | MIC (C. glabrata ATCC 90030): 12 µM (≈ 56.2 µg/mL) | MIC [7]: 1.5 µM (≈ 7.02 µg/mL) | MIC (C. albicans 9833): 24 µM (≈ 112 µg/mL) | MIC (C. tropicalis 6597): 12 µM (≈ 56.2 µg/mL) | MIC (C. krusei ATCC 6268): 6 µM (≈ 28.1 µg/mL) | apparent toxicity signs [8]: did not produce apparent toxicity signs

CC[C@H](C)[C@H](NC(=O)[C@H](CCCCN)NC(=O)[C@@H](N)CCCCN)C(=O)N[C@@H](CCCNC(=N)N)C(=O)N[C@H](C(=O)N[C@@H](CCCNC(=N)N)C(=O)N[C@@H](CC(C)C)C(=O)N[C@@H](CO)C(=O)N[C@@H](C)C(=O)NCCCC[C@H](NC(=O)[C@H](C)NC(=O)[C@H](CO)NC(=O)[C@H](CC(C)C)NC(=O)[C@H](CCCNC(=N)N)NC(=O)[C@@H](NC(=O)[C@H](CCCNC(=N)N)NC(=O)[C@@H](NC(=O)[C@H](CCCCN)NC(=O)[C@@H](N)CCCCN)[C@@H](C)CC)C(C)C)C(=O)NCCCC[C@H](NC(=O)[C@H](CCCCNC(=O)[C@H](C)NC(=O)[C@H](CO)NC(=O)[C@H](CC(C)C)NC(=O)[C@H](CCCNC(=N)N)NC(=O)[C@@H](NC(=O)[C@H](CCCNC(=N)N)NC(=O)[C@@H](NC(=O)[C@H](CCCCN)NC(=O)[C@@H](N)CCCCN)[C@@H](C)CC)C(C)C)NC(=O)[C@H](C)NC(=O)[C@H](CO)NC(=O)[C@H](CC(C)C)NC(=O)[C@H](CCCNC(=N)N)NC(=O)[C@@H](NC(=O)[C@H](CCCNC(=N)N)NC(=O)[C@@H](NC(=O)[C@H](CCCCN)NC(=O)[C@@H](N)CCCCN)[C@@H](C)CC)C(C)C)C(=O)NCCC(=O)O)C(C)C [L-M33, KKIRVIRLSA, reference compound]
MIC [1]: 1.5 µM (≈ 7.02 µg/mL) | MIC [2]: 1.5 µM (≈ 7.02 µg/mL) | MIC (E. coli ATCC 25922): 1.5 µM (≈ 7.02 µg/mL) | MIC [3]: 1.5 µM (≈ 7.02 µg/mL) | MIC (P. aeruginosa PAO-1): 1.5 µM (≈ 7.02 µg/mL) | MIC [4]: 3 µM (≈ 14 µg/mL) | MIC [5]: 6 µM (≈ 28.1 µg/mL) | haemolytic activity (percentage of haemolysis) (human erythrocytes): < 5% | degradation by protease Aureolysin (HPLC profile) (Aureolysin): degraded after only 1 hour of incubation

Indolicidin [reference compound]
haemolysis, result in words (human erythrocytes; human erythrocytes (FIG. 2)): more haemolytic
